Reference: ChEMBL document CHEMBL3046854, “Lupeol-3-O-decanoate, a new triterpene ester from Cadaba farinosa Forssk. growing in Saudi Arabia” (Med Chem Res, 2013)

The compounds below were run on Radical scavenging activity (assay: Antioxidant activity assessed as DPPH free radical scavenging activity at 20 uM after 30 min by UV-vis spectrophotometric analysis relative to propyl gallate).
Type: functional

In order of rising Activity:
1. COc1ccc(-c2oc3cc(O)cc(O)c3c(=O)c2O[C@@H]2O[C@H](CO)[C@@H](O)[C@H](O)[C@H]2O)cc1OC  49.1%
2. O=c1c(O[C@@H]2O[C@H](CO)[C@@H](O)[C@H](O)[C@H]2O)c(-c2ccc(O)c(O)c2)oc2cc(O)cc(O)c12  71.8%
3. NCCCCCCCCCCCC(=O)O  87.1%
